Reference: article PMC8458281, “Computational modeling and experimental validation of the EPI-X4/CXCR4 complex allows rational design of small peptide antagonists” (Communications Biology, 2021)
No end group written: not given here.

Tested on: zebrafish embryos
Test: Toxicity assay in zebrafish embryos
Type: in vivo
Conditions: embryos exposed 24 h from 24 hpf to 3, 30 and 300 µM in E3; scored at 48 hpf for cytotoxicity, developmental toxicity, cardiotoxicity, neurotoxicity; two independent assays, 10 × 3 embryos each
Experimental: Finally, we evaluated the toxicity of EPI-X4 JM#21 408–414-NH2 in zebrafish embryos, a widely used in vivo model for toxicity studies. We exposed embryos for 24 h starting at 24 h post fertilization (hpf), when most organ systems have already developed and are functional. Transparency of the embryos allows for evaluation by light microscopy not only of mortality, but also of sublethal cytotoxicity (necrosis, lysis), developmental toxicity (developmental delay, malformations), or toxicity affecting specific organ systems, in particular cardiotoxicity (heart edema, reduced circulation), and neurotoxicity (reduced touch escape response).
Wild-type zebrafish embryos were dechorionated at 24 hpf using digestion with 1 mg/ml pronase (Sigma) in E3 medium ([…]). […] At 48 hpf (after 24 h of incubation) embryos were scored in a stereomicroscope for signs of cytotoxicity (lysis and/or necrosis), developmental toxicity (delay and/or malformations), or cardiotoxicity (heart edema and/or reduced or absent circulation). Each embryo was also touched with a needle, and reduced or absent touch responses (escape movements) were evaluated as signs of neurotoxicity if and only if no signs of cytotoxicity were present in the same embryo. […]
T2: severe damage so that other phenotypes cannot be assessed (L3, L4, Nec2)

With ILRWSRK-NH2 [JM#21 408–414-NH2] the “toxicity in zebrafish embryos” value was “nontoxic even at high concentrations”.
